Measurements published in the supplement of paper PMC10307832.

What follows are cell lines tested with COc1cccc2c1C(=O)c1c(O)c3c(c(O)c1C2=O)C[C@@](O)(C(=O)CO)C[C@@H]3O[C@H]1C[C@H](N)[C@H](O)[C@H](C)O1 [Doxorubicin] + COc1cccc2cc(-c3nc([C@H]4CC[C@H](C(=O)O)CC4)n4ncnc(N)c34)[nH]c12 [OSI-027] (partner 0.5 µM) (assay: relative viability (nuclei count vs DMSO), 5 days (fraction); higher = more cells survive). Conditions: first compound 0.001 µM.
In short: (§1)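 For relative viability, nuclei counts in treated wells were divided by those in vehicle wells. Lung cancer cell lines had been pin-tool dosed in 1536-well plates the day after seeding and cultured for 5 days, then fixed and stained in one step (final 0.05% Triton X-100, 1% formaldehyde, 1 ug/ml Hoechst) and imaged at 4×. Doses were one drug alone or a fixed anchor-drug dose plus five library-drug doses (not always all listed) in √10 steps, and values are duplicate-plate medians.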

Cell Line	relative viability
NCI-H2009	0.634
NCI-H596	0.578
SK-LU-1	0.359
SW 1573	0.527
LCLC-97TM1	0.516
NCI-H661	0.829
NCI-H2228	0.35
EMC-BAC-2	0.5
HCC-44	0.35
NCI-H727	0.483
LK-2	0.175
NCI-H2126	0.538
NCI-H1648	0.291
H3255	0.641
COR-L23	0.753
COR-L 105	0.71
LC-2-ad	0.629
LU99A	0.353
ChaGo-K-1	0.587
NCI-H522	0.568
SW 900	0.373
NCI-H1395	0.633
LCLC-103H	0.482
NCI-H1650	0.496
NCI-H2170	0.25

Same assay, conditions: first compound 0.003162 µM

Cell Line	relative viability
NCI-H2342	0.563
NCI-H1623	0.41
RERF-LC-KJ	0.556
NCI-H1651	0.679
NCI-H1734	0.6
NCI-H2009	0.687
NCI-H596	0.801
SK-LU-1	0.297
SW 1573	0.513
LCLC-97TM1	0.684
NCI-H661	0.639
NCI-H2228	0.62
EMC-BAC-2	0.353
NCI-H2087	0.702
HCC-44	0.575
NCI-H727	0.713
LK-2	0.191

Cell Line	relative viability
NCI-H2126	0.701
NCI-H1648	0.276
NCI-H1793	0.334
H3255	0.517
COR-L23	0.912
COR-L 105	0.623
LC-2-ad	0.691
LU99A	0.338
ChaGo-K-1	0.588
NCI-H522	0.72
SW 900	0.708
NCI-H441	0.524
NCI-H1395	0.714
LCLC-103H	0.436
NCI-H1650	0.567
NCI-H2170	0.809

Same assay, conditions: first compound 0.01 µM

Cell Line	relative viability
NCI-H2342	0.597
NCI-H1623	0.462
RERF-LC-KJ	0.544
NCI-H1651	0.554
NCI-H1734	0.594
NCI-H2009	0.568
NCI-H596	0.799
SK-LU-1	0.28
SW 1573	0.316
LCLC-97TM1	0.558
NCI-H661	0.625
NCI-H2228	0.414
EMC-BAC-2	0.379
NCI-H2087	0.414
HCC-44	0.63
NCI-H727	0.531
LK-2	0.244

Cell Line	relative viability
NCI-H2126	0.642
NCI-H1648	0.261
NCI-H1793	0.253
H3255	0.629
COR-L23	0.741
COR-L 105	0.556
LC-2-ad	0.587
LU99A	0.302
ChaGo-K-1	0.63
NCI-H522	0.792
SW 900	0.571
NCI-H441	0.445
NCI-H1395	0.685
LCLC-103H	0.516
NCI-H1650	0.394
NCI-H2170	0.745

Same assay, conditions: first compound 0.03162 µM

Cell Line	relative viability
NCI-H2342	0.59
NCI-H1623	0.434
RERF-LC-KJ	0.302
NCI-H1651	0.298
NCI-H1734	0.395
NCI-H2009	0.632
NCI-H596	0.647
SK-LU-1	0.224
SW 1573	0.125
LCLC-97TM1	0.573
NCI-H661	0.46
NCI-H2228	0.274
EMC-BAC-2	0.239
NCI-H2087	0.403
HCC-44	0.381
NCI-H727	0.631
LK-2	0.187

Cell Line	relative viability
NCI-H2126	0.662
NCI-H1648	0.259
NCI-H1793	0.265
H3255	0.581
COR-L23	0.452
COR-L 105	0.428
LC-2-ad	0.386
LU99A	0.273
ChaGo-K-1	0.439
NCI-H522	0.756
SW 900	0.401
NCI-H441	0.261
NCI-H1395	0.603
LCLC-103H	0.405
NCI-H1650	0.153
NCI-H2170	0.614

Same assay, conditions: first compound 0.1 µM

Cell Line	relative viability
NCI-H2342	0.609
NCI-H1623	0.423
RERF-LC-KJ	0.261
NCI-H1651	0.22
NCI-H1734	0.432
NCI-H2009	0.402
NCI-H596	0.721
SK-LU-1	0.173
SW 1573	0.103
LCLC-97TM1	0.529
NCI-H661	0.291
NCI-H2228	0.209
EMC-BAC-2	0.197
NCI-H2087	0.269
HCC-44	0.322
NCI-H727	0.556
LK-2	0.199

Cell Line	relative viability
NCI-H2126	0.651
NCI-H1648	0.266
NCI-H1793	0.292
H3255	0.594
COR-L23	0.193
COR-L 105	0.34
LC-2-ad	0.292
LU99A	0.315
ChaGo-K-1	0.398
NCI-H522	0.709
SW 900	0.226
NCI-H441	0.279
NCI-H1395	0.559
LCLC-103H	0.454
NCI-H1650	0.144
NCI-H2170	0.795

What follows are cell lines tested with COC1=C(C=C(C=C1)C2=CC3=NC=CN3C(=N2)NC4=C(C=CC=N4)C(=O)N)OC [BAY61-3606] + C[C@@H](Oc1cc(-c2cnn(C3CCNCC3)c2)cnc1N)c1c(Cl)ccc(F)c1Cl [Crizotinib] (partner 1 µM) in the same assay as above. Conditions: first compound 0.02 µM.
In short: as §1

Cell Line	relative viability
RERF-LC-KJ	0.826
NCI-H1651	0.882
EBC-1	0.2
NCI-H1734	0.635
NCI-H2009	1.06
NCI-H596	0.969
SK-LU-1	1.08
SW 1573	0.802
LCLC-97TM1	0.262
NCI-H661	0.914
NCI-H2228	0.483
EMC-BAC-2	0.775
NCI-H2087	0.585
Calu-6	0.765
HCC-44	0.749
NCI-H1703	0.76

Cell Line	relative viability
NCI-H727	0.855
LK-2	0.227
NCI-H2126	1.06
H3255	0.922
COR-L23	0.697
COR-L 105	0.762
LU99A	0.562
ChaGo-K-1	1.09
IA-LM	1.04
A549	0.758
NCI-H441	0.668
NCI-H1299	0.98
LCLC-103H	1.07
NCI-H1650	0.936
NCI-H2170	1.27

Same assay, conditions: first compound 0.06325 µM

Cell Line	relative viability
RERF-LC-KJ	0.777
NCI-H1651	0.873
EBC-1	0.195
NCI-H1734	0.53
NCI-H2009	1.12
NCI-H596	1.01
SK-LU-1	0.853
SW 1573	0.65
NCI-H661	0.806
NCI-H2228	0.405
EMC-BAC-2	0.696
NCI-H2087	0.931
Calu-6	0.77
HCC-44	0.829
NCI-H1703	0.449
NCI-H727	0.706

Cell Line	relative viability
LK-2	0.216
NCI-H2126	1.01
H3255	0.854
COR-L23	0.67
COR-L 105	0.569
LC-2-ad	0.384
LU99A	0.468
ChaGo-K-1	0.832
IA-LM	0.865
A549	0.756
NCI-H441	0.788
NCI-H1299	0.961
LCLC-103H	0.997
NCI-H1650	1.08
NCI-H2170	1.27

Same assay, conditions: first compound 0.2 µM

Cell Line	relative viability
RERF-LC-KJ	0.817
NCI-H1651	0.846
EBC-1	0.23
NCI-H1734	0.601
NCI-H2009	1.01
NCI-H596	1.08
SK-LU-1	0.904
SW 1573	0.745
LCLC-97TM1	0.341
NCI-H2228	0.526
EMC-BAC-2	0.755
NCI-H2087	0.818
Calu-6	0.67
HCC-44	0.777
NCI-H1703	0.661
NCI-H727	0.992
LK-2	0.228
NCI-H2126	1
H3255	0.902
COR-L23	0.527
COR-L 105	0.674
LC-2-ad	0.447
LU99A	0.555
ChaGo-K-1	1.06
A549	0.712
NCI-H441	0.833
NCI-H1299	1.01
LCLC-103H	1.02
NCI-H1650	0.866
NCI-H2170	1.19

Same assay, conditions: first compound 0.6325 µM

Cell Line	relative viability
RERF-LC-KJ	0.819
NCI-H1651	0.869
EBC-1	0.16
NCI-H1734	0.674
NCI-H2009	1.08
NCI-H596	1.19
SK-LU-1	0.889
SW 1573	0.785
LCLC-97TM1	0.395
NCI-H661	0.984
NCI-H2228	0.378
EMC-BAC-2	0.817
NCI-H2087	0.863
Calu-6	0.732
HCC-44	0.907
NCI-H1703	0.353

Cell Line	relative viability
NCI-H727	0.925
LK-2	0.202
NCI-H2126	0.973
H3255	1.05
COR-L23	0.667
COR-L 105	0.541
LC-2-ad	0.406
LU99A	0.484
ChaGo-K-1	1.14
IA-LM	0.987
A549	0.713
NCI-H441	0.771
NCI-H1299	0.992
LCLC-103H	1.08
NCI-H1650	1
NCI-H2170	1.16

Same assay, conditions: first compound 2 µM

Cell Line	relative viability
RERF-LC-KJ	0.785
NCI-H1651	0.777
EBC-1	0.224
NCI-H1734	0.272
NCI-H2009	0.921
NCI-H596	0.931
SK-LU-1	0.398
SW 1573	0.588
LCLC-97TM1	0.262
NCI-H661	0.957
NCI-H2228	0.478
EMC-BAC-2	0.573
NCI-H2087	0.619
Calu-6	0.352
HCC-44	0.823
NCI-H1703	0.343

Cell Line	relative viability
NCI-H727	0.738
LK-2	0.201
NCI-H2126	0.893
H3255	0.752
COR-L23	0.509
COR-L 105	0.421
LC-2-ad	0.348
LU99A	0.305
ChaGo-K-1	1.05
IA-LM	0.67
A549	0.406
NCI-H441	0.414
NCI-H1299	0.93
LCLC-103H	1.02
NCI-H1650	0.385
NCI-H2170	0.87
